Assay results taken from US20240009165A1, “GRISEOFULVIN AS AN ADJUNCT DRUG FOR THE TREATMENT OF CEREBRAL AND SEVERE MALARIA” (priority 2020, published 2024).

What was measured:
P. berghei ANKA [1] = experiment: Cerebral malaria (CM) protection and mortality of PbWT-infected mice treated with griseofulvin; type: in vivo
Description: The present invention evaluated the potential of griseofulvin in preventing CM and treated WT-infected C57BL/6 mice from day 4 when the blood parasitemia was around 2%, and examined for CM pathogenesis. […] While ˜80% of the control mice succumbed to CM within day 10, more than 80% of the griseofulvin-treated mice were protected from CM. […] While the anemia mortality in CM-escaped control mice occurred within day 17, more than 80% of the griseofulvin-treated mice could survive beyond day 20 with almost 50% of them surviving even beyond day 24. […] To confirm that the CM protection is due to inhibition of parasite heme synthesis, the present invention analyzed heme synthesis in griseofulvin-treated and -untreated WT parasites by incubating the in vivo-treated pRBCs in vitro with ^14C-ALA (committed precursor of heme synthesis) for 9 h. There was around 60% decrease in the ^14C-labelling of free heme in griseofulvin-treated parasites. […] As observed for the KO parasites, the total Hz content in the griseofulvin-treated parasites was around 50-60% less when compared with untreated parasites and there was also close to 60% decrease in the free heme levels.
(§1) Routine propagation of P. berghei in mice and CM experiments. P. berghei ANKA WT and KO parasites were propagated in C57BL/6 male/female mice of 7-8 weeks old. Peripheral blood parasitemia was monitored by performing light microscopy for Giemsa stained thin blood smears prepared from tail vein blood. When the blood parasitemia was around 10%, 10^5 P. berghei ANKA WT or 10^5/10^7 ALAS/FC KO parasites were collected and injected intraperitoneally in 7-8 weeks old C57BL/6 male/female naïve mice to initiate CM experiments. Growth curve analysis was carried out by monitoring the blood parasitemia. The development and progression of ECM were monitored by examining RMCBS for neurological symptoms. To assess BBB integrity, Evans blue uptake assays were carried out by injecting 200 μl of 2% Evans blue in PBS intravenously and examining the extravasation of dye after one hour in the brain of the infected mice that were transcardially perfused with PBS. The extent of BBB damage was quantified by incubating the brain samples in formamide at 37° C. for 48 h, extracting the Evans blue and measuring the absorbance at 620 nm.
Griseofulvin treatment in mice. Griseofulvin was prepared by dissolving 1 or 2 mg in 40 μl DMSO and then making up the volume to 200 μl with 10% solutol HS 15 in saline. The mixture was vortexed thoroughly for 10 min to form an emulsion and injected intraperitoneally into the mice. All single dose injections were carried out at 06:00 h and double dose injections were carried out at 06:00 h and 18:00 h for the respective days. […]

P. berghei ANKA [2] = experiment: Growth curve analysis (peripheral blood parasitemia) in treated mice; type: in vivo; details: 2 mg dose per day on day 4, 5, 6, 7 and 8; C57BL/6 mice
Description: The present invention evaluated the potential of griseofulvin in preventing CM and treated WT-infected C57BL/6 mice from day 4 when the blood parasitemia was around 2%, and examined for CM pathogenesis. […] While ˜80% of the control mice succumbed to CM within day 10, more than 80% of the griseofulvin-treated mice were protected from CM. […] While the anemia mortality in CM-escaped control mice occurred within day 17, more than 80% of the griseofulvin-treated mice could survive beyond day 20 with almost 50% of them surviving even beyond day 24. […] To confirm that the CM protection is due to inhibition of parasite heme synthesis, the present invention analyzed heme synthesis in griseofulvin-treated and -untreated WT parasites by incubating the in vivo-treated pRBCs in vitro with ^14C-ALA (committed precursor of heme synthesis) for 9 h. […]
Routine propagation of P. berghei in mice and CM experiments. […] Peripheral blood parasitemia was monitored by performing light microscopy for Giemsa stained thin blood smears prepared from tail vein blood. […] The development and progression of ECM were monitored by examining RMCBS for neurological symptoms. […] The extent of BBB damage was quantified by incubating the brain samples in formamide at 37° C. for 48 h, extracting the Evans blue and measuring the absorbance at 620 nm. […]

parasite heme synthesis = experiment: 14C-ALA labelling of free heme in in vivo-treated pRBCs; type: cell-based, P. berghei; details: in vivo-treated pRBCs incubated in vitro with 14C-ALA for 9 h; vs untreated WT parasites
Description: The present invention evaluated the potential of griseofulvin in preventing CM and treated WT-infected C57BL/6 mice from day 4 when the blood parasitemia was around 2%, and examined for CM pathogenesis. […] While ˜80% of the control mice succumbed to CM within day 10, more than 80% of the griseofulvin-treated mice were protected from CM. […] While the anemia mortality in CM-escaped control mice occurred within day 17, more than 80% of the griseofulvin-treated mice could survive beyond day 20 with almost 50% of them surviving even beyond day 24. […]
Labelling studies with ^14C-ALA. […] For ^14C-ALA labelling, blood samples were collected from griseofulvin treated and control WT-infected mice around 16:00 h and the labelling was carried out for 9 h at a radioactivity of […]. […] The upper phase was separated, dried under nitrogen stream, dissolved in methanol and analysed by TLC on silica gel using the mobile phase 2,6-lutidine and water (5:3 v/v) in ammonia atmosphere. The intensity of radiolabelling was scanned using Biomolecular Imager by exposing the TLC sheets to phosphorimager screen and the radioactive counts were measured.

P. berghei ANKA [3] = experiment: Evans blue extravasation in the brain (BBB integrity); type: in vivo; details: griseofulvin-treated WT-infected mice; brain on day 8 post-infection
Description: as §1

P. berghei ANKA [4] = experiment: Histochemical and immunofluorescence analyses of brain sections; type: in vivo; details: griseofulvin-treated WT-infected mice
Procedure: Histological and immunofluorescence analyses of cerebral pathology in the brain of infected mice. For H&E staining to assess vascular blockage, hemorrhages and demyelination, brain samples were fixed with formalin for 72 hours at room temperature. After dehydrating with ethanol and treating with xylene, paraffin embedded blocks were made and sections of 7 μm thickness were prepared using rotary microtome. The sections were then processed and stained with H&E using standard protocols. Immunohistochemical analysis of IgG extravasation in the brain sections was carried out as described. Brain sections of 30 μm thickness was antigen retrieved by treating them at 95° C. for 30 min in sodium citrate buffer pH 6.0, followed by blocking with 3% H2O2 at room temperature for 30 min to prevent endogenous peroxidase activity. The sections were then incubated with HRP-conjugated goat anti-mouse IgG at 1:250 dilution in PBS containing 0.3% Triton X-100 and 0.1% BSA, followed by developing with diaminobenzidine tetrahydrochloride and counterstaining with hematoxilin. Immunofluorescence analysis of brain sections for parasite sequestration was carried out by fixing the brain samples in 4% paraformaldehyde in PBS containing 20% sucrose for 24 h at 4° C. and cryoprotecting them for 48 h in PBS containing 20% sucrose. Coronal sections of 30 μm thickness was prepared using cryostat microtome and antigen retrieval was carried out by treating them at 95° C. for 30 min in sodium citrate buffer pH 9.0. After blocking with 1% BSA, the sections were incubated with anti-CD31 mouse monoclonal antibody conjugated with Alexa Fluor 594 and anti-PbGAPDH rabbit polyclonal serum or anti-mouse CD3 rat monoclonal antibody for 16 h at 4° C. The sections were then treated with FITC-conjugated donkey anti-rabbit IgG or FITC-conjugated goat anti-rat IgG (1:200 dilution), followed by 4′,6-diamidino-2-phenylindole (DAPI) staining. Anti-mouse β-APP rabbit polyclonal antibody was used in 1:200 dilution.

hemozoin (Hz) formation = experiment: Hemozoin and free heme estimation in parasites; type: in vivo, P. berghei
Procedure: Heme, Hz, hemoglobin and hemopexin estimations. Free heme levels in the plasma samples of WT- and KO-infected mice were quantified using Hemin colorimetric assays. The assay is specific for free heme and it utilizes peroxidase activity of hemin to facilitate the conversion of a colorless probe to a strongly colored compound with absorbance at 570 nm. The quantification of free heme in the parasite lysates was carried out by resuspending the parasite pellets in 5 volumes of hypotonic lysis buffer containing 5 mM Tris pH 7.5 with protease inhibitors and incubating them in ice for 30 min. The lysates were then centrifuged at 20,000 g for 20 min, 4° C., and the supernatants obtained were used for free heme estimation as mentioned above for the plasma samples. The Hz content of the WT and KO parasite pellets was estimated as described. The parasite pellet was resuspended in 1 ml of 100 mM sodium acetate buffer, pH 5.0 and left at 37° C. for overnight, followed by centrifugation at 10,000 g for 5 min. The resultant pellet was resuspended in 100 mM Tris buffer pH 8.0 containing 2.5% SDS and incubated at 37° C. for 30 min, followed by centrifugation at 10,000 g for 5 min. The pellet obtained was washed once with 100 mM alkaline bicarbonate pH 9.2 and then with distilled water. The final Hz pellet was dissolved in 100 mM NaOH containing 2.5% SDS, and the absorbance was measured at 405 nm. The supernatants of sodium acetate and Tris SDS steps were collected to estimate the protein content by Micro BCA protein assay kit and heme content of the Hz was expressed per mg of total protein. […] After repeating this step thrice, the pellets were solubilized in 100 mM NaOH containing 2% SDS and 3 mM EDTA, and the absorbance was measured at 405 nm. In parallel, the parasite load in the organs was examined by quantitative PCR (qPCR) analysis carried out with Pb18SrRNA primers for the total RNA isolated from 30 mg tissue of the organs. […] Hemoglobin and hemopexin levels in the plasma samples of WT- and KO-infected mice were measured by ELISA.

P. berghei ANKA [5] = experiment: Plasma heme, hemopexin and hemoglobin estimation in infected mice; type: in vivo; details: griseofulvin-treated WT-infected mice
Procedure: Heme, Hz, hemoglobin and hemopexin estimations. Free heme levels in the plasma samples of WT- and KO-infected mice were quantified using Hemin colorimetric assays. The assay is specific for free heme and it utilizes peroxidase activity of hemin to facilitate the conversion of a colorless probe to a strongly colored compound with absorbance at 570 nm. The quantification of free heme in the parasite lysates was carried out by resuspending the parasite pellets in 5 volumes of hypotonic lysis buffer containing 5 mM Tris pH 7.5 with protease inhibitors and incubating them in ice for 30 min. The lysates were then centrifuged at 20,000 g for 20 min, 4° C., and the supernatants obtained were used for free heme estimation as mentioned above for the plasma samples. The Hz content of the WT and KO parasite pellets was estimated as described. The parasite pellet was resuspended in 1 ml of 100 mM sodium acetate buffer, pH 5.0 and left at 37° C. for overnight, followed by centrifugation at 10,000 g for 5 min. The resultant pellet was resuspended in 100 mM Tris buffer pH 8.0 containing 2.5% SDS and incubated at 37° C. for 30 min, followed by centrifugation at 10,000 g for 5 min. The pellet obtained was washed once with 100 mM alkaline bicarbonate pH 9.2 and then with distilled water. The final Hz pellet was dissolved in 100 mM NaOH containing 2.5% SDS, and the absorbance was measured at 405 nm. The supernatants of sodium acetate and Tris SDS steps were collected to estimate the protein content by Micro BCA protein assay kit and heme content of the Hz was expressed per mg of total protein. To estimate the Hz content in the spleen and liver of the WT- and KO-infected mice, 50 mg tissue of the respective organs was homogenized in 50 mM Tris pH 8.0 containing 50 mM NaCl, 5 mM CaCl2 and 1% Triton X-100, and incubated for 12 h at 37° C. in the presence of proteinase K. The lysates were sonicated and centrifuged at 15,000 g for 30 min. The pellets obtained were resuspended with 100 mM sodium bicarbonate containing 2% SDS and sonicated, followed by centrifugation at 15,000 g for 15 min. After repeating this step thrice, the pellets were solubilized in 100 mM NaOH containing 2% SDS and 3 mM EDTA, and the absorbance was measured at 405 nm. In parallel, the parasite load in the organs was examined by quantitative PCR (qPCR) analysis carried out with Pb18SrRNA primers for the total RNA isolated from 30 mg tissue of the organs. After normalizing with respect to the parasite load, the total heme content of the Hz isolated was expressed per mg weight of the organ. Hemoglobin and hemopexin levels in the plasma samples of WT- and KO-infected mice were measured by ELISA.

Plasmodium falciparum = details: humans infected with Plasmodium falciparum; reference (34); cited from earlier work
P. berghei ANKA [6] = experiment: α,β-arteether alone or with griseofulvin in preventing CM in mice; type: in vivo
Procedure: Griseofulvin treatment in mice. Griseofulvin was prepared by dissolving 1 or 2 mg in 40 μl DMSO and then making up the volume to 200 μl with 10% solutol HS 15 in saline. The mixture was vortexed thoroughly for 10 min to form an emulsion and injected intraperitoneally into the mice. All single dose injections were carried out at 06:00 h and double dose injections were carried out at 06:00 h and 18:00 h for the respective days. Control mice were injected with the solvent. α,β-arteether (E MAL) was administered intramuscularly. For experiments involving the combination of α,β-arteether and griseofulvin, α,β-arteether was administered intramuscularly at 06:00 h on day 6, followed by two doses of griseofulvin at 24 h interval (at 09:00 h on day 6 and 7).

[7] = griseofulvin-treated WT parasites vs untreated

Structure (SMILES)	mice protected from CM (P. berghei ANKA [1]; WT-infected C57BL/6 mice, single dose of 2 mg/day i.p. from day 4 until day 8, ~80% of control mice succumbed to CM within day 10)	delay in mortality due to anemia (P. berghei ANKA [1]; griseofulvin-treated WT-infected C57BL/6 mice vs CM-escaped control mice)	mice surviving beyond day 24 (P. berghei ANKA [1]; griseofulvin-treated WT-infected mice)	mice surviving beyond day 20 (P. berghei ANKA [1]; griseofulvin-treated WT-infected mice, anemia mortality in CM-escaped control mice within day 17)	growth curves of WT parasites in treated and untreated mice (P. berghei ANKA [2])	decrease in 14C-labelling of free heme (parasite heme synthesis)	Evans blue extravasation in the brain (P. berghei ANKA [3])	intracerebral hemorrhages in brain sections (P. berghei ANKA [4]; H&E)	accumulation of CD3+ T cells in the cerebral vasculature (P. berghei ANKA [4]; immunofluorescence)	accumulation of parasites in the cerebral vasculature (P. berghei ANKA [4]; immunofluorescence)	Hz content by light microscopy (hemozoin (Hz) formation; Giemsa-stained peripheral smears and paraformaldehyde-fixed pRBCs of treated mice)	decrease in free heme levels in parasites (hemozoin (Hz) formation; [7])	total Hz content, less than untreated parasites (hemozoin (Hz) formation; [7])	plasma heme/hemopexin ratio (P. berghei ANKA [5])	plasma level of Hb (P. berghei ANKA [5])	plasma level of heme (P. berghei ANKA [5])	plasma level of hemopexin (P. berghei ANKA [5])	in vivo parasite growth in humans (Plasmodium falciparum)	peripheral parasitemia in blood smears (P. berghei ANKA [6]; single intramuscular dose of 0.25 mg/mouse on day 6)	WT-infected mice developing CM (P. berghei ANKA [6]; single intramuscular dose of 0.25 mg/mouse on day 6, parasitemia around 10%)
COC1=CC(=O)C[C@@H](C)[C@]12Oc1c(Cl)c(OC)cc(OC)c1C2=O [griseofulvin]	more than 80%	significant delay	around 50%	more than 80%	very much comparable	around 60%	less Evans blue extravasation	absence of intracerebral hemorrhages	lack of accumulation	lack of accumulation	less Hz content	around 60%	50-60%	comparable to that of the KO-infected mice	comparable to that of the KO-infected mice	comparable to that of the KO-infected mice	comparable to that of the KO-infected mice	did not inhibit the in vivo parasite growth	–	–
CCO[C@H]1O[C@@H]2O[C@@]3(C)CC[C@H]4[C@H](C)CC[C@@H]([C@H]1C)[C@@]24OO3 [α,β-arteether]	–	–	–	–	–	–	–	–	–	–	–	–	–	–	–	–	–	–	clearance	60-70%
